Laboratory results reported in patent publication US9695155B2, “Herbicidal substituted pyrimidinyloxy benzene compounds” (E. I. DU PONT DE NEMOURS AND COMPANY, priority 2013, dated 2017).

Tests used:
sedge, umbrella = assay: Test B flooded paddy test; format: in vivo, Cyperus difformis; conditions: Flood, 250 g ai/ha; 0 to 100 scale where 0 is no effect and 100 is complete control
Method in brief: (§1)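 Greenhouse flooded-pot test: compounds dosed into 3 cm standing water over 2-leaf plants, flood held constant. Rated visually after 13–15 days on 0–100 (complete control = 100); a dash marks no test result.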

barnyardgrass [1] = assay: Test A postemergence; format: in vivo, Echinochloa crus-galli; conditions: 0 to 100 scale where 0 is no effect and 100 is complete control
Method in brief: (§2)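 Compounds in non-phytotoxic solvent with surfactant applied as soil spray preemergence, or postemergence to plants 2-10 cm at one- to two-leaf stage, in loam/sand. After approximately 10 days in greenhouse, injury rated visually versus untreated controls, 0 (no effect) to 100 (complete control).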

johnsongrass = assay: Test C preemergence; format: in vivo, Sorghum halepense; conditions: for Johnsongrass plant response rating: preemergence
Method in brief: (§3)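 Sown in loam/sand → sprayed pre-emergence; or grown to 1–4 leaves in peat mix → sprayed post-emergence. Same solvent/surfactant formulation both ways. Greenhouse 13–15 d. Score 0–100 visual.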

soybean = assay: Test C postemergence; format: in vivo, Glycine max; conditions: for Plant response rating, Soybean: Postemergence, scale 0 to 100 (0 no effect, 100 complete control)
Method in brief: as §3

lambsquarters = assay: Test C postemergence; format: in vivo, Chenopodium album; conditions: for Plant response rating, Lambsquarters: Postemergence, scale 0 to 100 (0 no effect, 100 complete control)
Method in brief: as §3

galium = assay: Test C preemergence; format: in vivo, Galium aparine; conditions: for Galium plant response rating: preemergence
Method in brief: as §3

corn = assay: Test A postemergence; format: in vivo, Zea mays; conditions: 0 to 100 scale where 0 is no effect and 100 is complete control
Method in brief: as §2

large (Lg) crabgrass [2] = assay: Test C preemergence; format: in vivo, Digitaria sanguinalis; conditions: for Crabgrass, Large plant response rating: preemergence
Method in brief: as §3

velvetleaf [3] = assay: Test C postemergence; format: in vivo, Abutilon theophrasti; conditions: for Plant response rating, Velvetleaf: Postemergence, scale 0 to 100 (0 no effect, 100 complete control)
Method in brief: as §3

waterhemp = assay: Test C postemergence; format: in vivo, Amaranthus rudis; conditions: for Plant response rating, Waterhemp: Postemergence, scale 0 to 100 (0 no effect, 100 complete control)
Method in brief: as §3

oilseed rape = assay: Test C postemergence; format: in vivo, Brassica napus; conditions: for Plant response rating, Oilseed Rape: Postemergence, scale 0 to 100 (0 no effect, 100 complete control)
Method in brief: as §3

large (Lg) crabgrass [4] = assay: Test C postemergence; format: in vivo, Digitaria sanguinalis; conditions: for Plant response rating, Crabgrass, Large: Postemergence
Method in brief: as §3

velvetleaf [5] = assay: Test C preemergence; format: in vivo, Abutilon theophrasti; conditions: for Velvetleaf plant response rating: preemergence
Method in brief: as §3

barnyardgrass [6] = assay: Test A preemergence; format: in vivo, Echinochloa crus-galli
Method in brief: as §2

rice = assay: Test B flooded paddy test; format: in vivo, Oryza sativa; conditions: Flood, 250 g ai/ha; 0 to 100 scale where 0 is no effect and 100 is complete control
Method in brief: as §1

[7] = 16 g ai/ha, scale 0 to 100 (0 no effect, 100 complete control)
[8] = 62 g ai/ha, scale 0 (no effect) to 100 (complete control)
[9] = 125 g ai/ha, scale 0 (no effect) to 100 (complete control)
[10] = Preemergence, 31 g ai/ha, scale 0 to 100, 0 no effect, 100 complete control

N#Cc1cccc(Oc2ncc(Br)cn2)c1-n1cc(I)cn1 [Compound 88]
Plant response rating, Sedge, Umbrella (sedge, umbrella): 0 | Plant response rating, Barnyardgrass (barnyardgrass [1]; 125 g ai/ha): 60 | Plant response rating, Barnyardgrass (barnyardgrass [1]; 500 g ai/ha): 80 | Johnsongrass plant response rating (johnsongrass; [7]): 0 | Johnsongrass plant response rating (johnsongrass; [8]): 40 | Johnsongrass plant response rating (johnsongrass; [9]): 85 | Plant response rating, Johnsongrass (johnsongrass; [10]): 0 | Plant response rating (0 to 100), Soybean (soybean; 125 g ai/ha, postemergence): 65 | Plant response rating, Soybean (soybean; 31 g ai/ha, 13 to 15 days): 65 | Plant response rating, Soybean (soybean; 62 g ai/ha): 95 | Plant response rating (0 to 100), Lambsquarters (lambsquarters; 125 g ai/ha, postemergence): 75 | Plant response rating, Lambsquarters (lambsquarters; 31 g ai/ha, 13 to 15 days): 75 | Plant response rating, Lambsquarters (lambsquarters; 62 g ai/ha): 60 | Galium plant response rating (galium; [7]): 0 | Galium plant response rating (galium; [8]): 90 | Galium plant response rating (galium; [9]): 80 | Plant response rating, Galium (galium; [10]): 50 | Plant response rating, Corn (corn; 125 g ai/ha): 30 | Plant response rating, Corn (corn; 500 g ai/ha): 50 | Crabgrass, Large plant response rating (large (Lg) crabgrass [2]; [7]): 45 | Crabgrass, Large plant response rating (large (Lg) crabgrass [2]; [8]): 100 | Crabgrass, Large plant response rating (large (Lg) crabgrass [2]; [9]): 100 | Plant response rating, Crabgrass, Large (large (Lg) crabgrass [2]; [10]): 70 | Plant response rating (0 to 100), Velvetleaf (velvetleaf [3]; 125 g ai/ha, postemergence): 55 | Plant response rating, Velvetleaf (velvetleaf [3]; 31 g ai/ha, 13 to 15 days): 35 | Plant response rating, Velvetleaf (velvetleaf [3]; 62 g ai/ha): 40 | Plant response rating (0 to 100), Waterhemp (waterhemp; 125 g ai/ha, postemergence): 90 | Plant response rating, Waterhemp (waterhemp; 31 g ai/ha, 13 to 15 days): 75 | Plant response rating, Waterhemp (waterhemp; 62 g ai/ha): 85 | Plant response rating (0 to 100), Oilseed Rape (oilseed rape; 125 g ai/ha, postemergence): 45 | Plant response rating, Oilseed Rape (oilseed rape; 31 g ai/ha, 13 to 15 days): 50 | Plant response rating, Oilseed Rape (oilseed rape; 62 g ai/ha): 55 | Crabgrass, Large plant response rating (large (Lg) crabgrass [4]; 16 g ai/ha, postemergence, visual rating, scale 0 to 100 (0 no effect, 100 complete control), 13 to 15 days): 5 | Plant response rating (0 to 100), Crabgrass, Large (large (Lg) crabgrass [4]; 125 g ai/ha, postemergence): 10 | Plant response rating, Crabgrass, Large (large (Lg) crabgrass [4]; 31 g ai/ha, scale 0 to 100 (0 no effect, 100 complete control), 13 to 15 days): 5 | Plant response rating, Crabgrass, Large (large (Lg) crabgrass [4]; 62 g ai/ha, scale 0 to 100 (0 no effect, 100 complete control)): 10 | Velvetleaf plant response rating (velvetleaf [5]; [7]): 15 | Velvetleaf plant response rating (velvetleaf [5]; [8]): 100 | Velvetleaf plant response rating (velvetleaf [5]; [9]): 100 | Plant response rating, Velvetleaf (velvetleaf [5]; [10]): 98 | Plant response rating, Barnyardgrass (barnyardgrass [6]; 125 g ai/ha, 0 to 100 scale where 0 is no effect and 100 is complete control): 60 | Barnyardgrass plant response rating (barnyardgrass [6]; 500 g ai/ha, 0 to 100 scale, 0 no effect, 100 complete control, approx. 10 days): 80 | Plant response rating, Rice (rice): 0
